For twelve molecules, MIC and hemolysis results are on record in ChEMBL document CHEMBL4396896, “N-Aminoacyl and N-hydroxyacyl derivatives of diosgenyl 2-amino-2-deoxy-β-d-glucopyranoside: Synthesis, antimicrobial and hemolytic activities” (Bioorg Med Chem, 2019).

Molecules are shown by their SMILES. Converted amounts (≈) assume the structure as drawn. A value given as a limit tells only on which side of the number the result lay.

The subject of one data set is Candida albicans. As to the kind of experiment: Antifungal activity against Candida albicans ATCC 10231 incubated in sabouraud liquid medium under aerobic condition for 48 hrs using initial inoculum of 10^3 CFU/ml by serial dilution method. Particulars: ATCC 10231, 48 h. In kind it is functional.
The next data set concerns Pseudomonas aeruginosa. Description: Antibacterial activity against Pseudomonas aeruginosa ATCC 9027 incubated in MHB II under aerobic condition for 18 hrs using initial inoculum of 5 x 10^5 CFU/ml by serial dilution method. In kind it is functional. Particulars: ATCC 9027, 18 h.
A further data set concerns Escherichia coli. As to the kind of experiment: Antibacterial activity against Escherichia coli ATCC 25922 incubated in MHB II under aerobic condition for 18 hrs using initial inoculum of 5 x 10^5 CFU/ml by serial dilution method. In kind it is functional. Particulars: ATCC 25922, 18 h.
The next data set deals with Bacillus subtilis. Description: Antibacterial activity against Bacillus subtilis ATCC 6633 incubated in MHB II under aerobic condition for 18 hrs using initial inoculum of 5 x 10^5 CFU/ml by serial dilution method. It counts as functional. Conditions: ATCC 6633, 18 h.
The test system of another data set is Klebsiella pneumoniae. As to the kind of experiment: Antibacterial activity against Klebsiella pneumoniae ATCC 700603 incubated in MHB II under aerobic condition for 18 hrs using initial inoculum of 5 x 10^5 CFU/ml by serial dilution method. It counts as functional. Particulars: ATCC 700603, 18 h.
In data set [1] the test system is Staphylococcus epidermidis. As to the kind of experiment: Antibacterial activity against Staphylococcus epidermidis PCM 2118 incubated in MHB II under aerobic condition for 18 hrs using initial inoculum of 5 x 10^5 CFU/ml by serial dilution method. Conditions: PCM 2118, 18 h. It counts as functional.
Another data set relates to Proteus mirabilis. As to the kind of experiment: Antibacterial activity against Proteus mirabilis PCM 543 incubated in MHB II under aerobic condition for 18 hrs using initial inoculum of 5 x 10^5 CFU/ml by serial dilution method. In kind it is functional. Particulars: PCM 543, 18 h.
The test system of another data set is Staphylococcus aureus. As to the kind of experiment: Antibacterial activity against Staphylococcus aureus ATCC 25923 incubated in MHB II under aerobic condition for 18 hrs using initial inoculum of 5 x 10^5 CFU/ml by serial dilution method. Conditions: ATCC 25923, 18 h. In kind it is functional.
A further data set concerns Enterococcus faecalis. Description: Antibacterial activity against Enterococcus faecalis ATCC 29212 incubated in MHB II under aerobic condition for 18 hrs using initial inoculum of 5 x 10^5 CFU/ml by serial dilution method. In kind it is functional. Conditions: ATCC 29212, 18 h.
In a further data set the test system is Yarrowia lipolytica. As to the kind of experiment: Antifungal activity against Candida lipolytica PCM 2680 incubated in sabouraud liquid medium under aerobic condition for 48 hrs using initial inoculum of 10^3 CFU/ml by serial dilution method. Conditions: PCM 2680, 48 h. In kind it is functional.
The nature of data set [2]: Haemolytic activity in human erythrocytes assessed as haemolytic index by measuring hemoglobin release at 0.5 to 128 mg/L incubated for 1 hr by microplate spectrophotometry relative to control. In kind it is ADME, cell-based, Erythrocyte. Particulars: human erythrocytes, read-out: HI.
Data set [3] is described as follows: Haemolytic activity in human erythrocytes assessed as haemolytic index by measuring hemoglobin release at 128 mg/L incubated for 1 hr by microplate spectrophotometry. Particulars: read-out: HI. In kind it is ADME, cell-based, Erythrocyte.

In general, MIC refers to the smallest concentration in the dilution series that meets the test's criterion for growth inhibition. A low value points to a more susceptible organism. As to `CC(=O)N[C@H]1[C@H](O[C@H]2CC[C@@]3(C)C(=CC[C@H]4[C@@H]5C[C@@H]6O[C@]7(CC[C@@H](C)CO7)[C@@H](C)[C@@H]6[C@@]5(C)CC[C@@H]43)C2)O[C@H](CO)[C@@H](O)[C@@H]1O`, the MIC (against Candida albicans; against Pseudomonas aeruginosa; against Escherichia coli; against Bacillus subtilis; against Klebsiella pneumoniae; in [1]) was more than 128 µg/mL in each case. For the same molecule, the MIC against Proteus mirabilis, in the data set on Staphylococcus aureus and with Enterococcus faecalis was more than 128 µg/mL throughout.
Turning to `C[C@@H]1CC[C@@]2(OC1)O[C@H]1C[C@H]3[C@@H]4CC=C5C[C@@H](O[C@@H]6O[C@H](CO)[C@@H](O)[C@H](O)[C@H]6NC(=O)CO)CC[C@]5(C)[C@H]4CC[C@]3(C)[C@H]1[C@@H]2C`, the MIC (in the data set with Candida albicans; against Pseudomonas aeruginosa; in the data set on Escherichia coli; in the data set with Bacillus subtilis; with Klebsiella pneumoniae; in data set [1]) was more than 128 µg/mL in each case. The MIC against Yarrowia lipolytica, against Proteus mirabilis, against Staphylococcus aureus and in the data set with Enterococcus faecalis was more than 128 µg/mL in each case. In addition, the hemolysis at 1 h in data set [2] was less than 10%.
For `C[C@@H]1CC[C@@]2(OC1)O[C@H]1C[C@H]3[C@@H]4CC=C5C[C@@H](O[C@@H]6O[C@H](CO)[C@@H](O)[C@H](O)[C@H]6NC(=O)[C@@H](N)CO)CC[C@]5(C)[C@H]4CC[C@]3(C)[C@H]1[C@@H]2C`, the MIC against Candida albicans is 4 µg/mL (≈ 6.03 µM); with Pseudomonas aeruginosa, more than 128 µg/mL; in the data set on Escherichia coli it was more than 128 µg/mL; in the data set on Bacillus subtilis, 8 µg/mL (≈ 12.1 µM); in the data set on Klebsiella pneumoniae it was more than 128 µg/mL; in data set [1], 4 µg/mL (≈ 6.03 µM). In addition, the MIC in the data set on Yarrowia lipolytica is 4 µg/mL (≈ 6.03 µM); in the data set on Proteus mirabilis, more than 128 µg/mL; in the data set with Staphylococcus aureus it was 8 µg/mL (≈ 12.1 µM); against Enterococcus faecalis, 16 µg/mL (≈ 24.1 µM). In addition, the hemolysis at 1 h, 128 mg/L in data set [3] is 46%.
Turning to `CNCC(=O)N[C@H]1[C@H](O[C@H]2CC[C@@]3(C)C(=CC[C@H]4[C@@H]5C[C@@H]6O[C@]7(CC[C@@H](C)CO7)[C@@H](C)[C@@H]6[C@@]5(C)CC[C@@H]43)C2)O[C@H](CO)[C@@H](O)[C@@H]1O`, the MIC with Candida albicans is 4 µg/mL (≈ 6.18 µM); with Pseudomonas aeruginosa, more than 128 µg/mL; with Escherichia coli it was more than 128 µg/mL; against Bacillus subtilis it was 4 µg/mL (≈ 6.18 µM); with Klebsiella pneumoniae it was more than 128 µg/mL; in [1], 4 µg/mL (≈ 6.18 µM). In addition, the MIC in the data set with Yarrowia lipolytica is 4 µg/mL (≈ 6.18 µM); in the data set with Proteus mirabilis, more than 128 µg/mL; against Staphylococcus aureus, 4 µg/mL (≈ 6.18 µM); in the data set with Enterococcus faecalis, 4 µg/mL (≈ 6.18 µM). In data set [2], the hemolysis at 1 h was less than 10%.
Consider `CSCC[C@H](N)C(=O)N[C@H]1[C@H](O[C@H]2CC[C@@]3(C)C(=CC[C@H]4[C@@H]5C[C@@H]6O[C@]7(CC[C@@H](C)CO7)[C@@H](C)[C@@H]6[C@@]5(C)CC[C@@H]43)C2)O[C@H](CO)[C@@H](O)[C@@H]1O`, for which the MIC in the data set on Pseudomonas aeruginosa is more than 128 µg/mL; with Escherichia coli it was more than 128 µg/mL; against Bacillus subtilis, more than 128 µg/mL; against Klebsiella pneumoniae it was more than 128 µg/mL; in data set [1], 4 µg/mL (≈ 5.66 µM); against Proteus mirabilis it was more than 128 µg/mL. The MIC against Staphylococcus aureus was more than 128 µg/mL; with Enterococcus faecalis it was 4 µg/mL (≈ 5.66 µM). In addition, the hemolysis at 1 h in data set [2] was less than 4%.
In the case of `CC(=O)NCC(=O)N[C@H]1[C@H](O[C@H]2CC[C@@]3(C)C(=CC[C@H]4[C@@H]5C[C@@H]6O[C@]7(CC[C@@H](C)CO7)[C@@H](C)[C@@H]6[C@@]5(C)CC[C@@H]43)C2)O[C@H](CO)[C@@H](O)[C@@H]1O`, the MIC (against Candida albicans; in the data set on Pseudomonas aeruginosa; with Escherichia coli; with Bacillus subtilis; against Klebsiella pneumoniae; in data set [1]) was more than 128 µg/mL each time. Also, the MIC with Yarrowia lipolytica, against Proteus mirabilis, against Staphylococcus aureus and with Enterococcus faecalis was more than 128 µg/mL in each case. In addition, the hemolysis at 1 h in data set [2] is less than 10%.
Consider `C[C@@H]1CC[C@@]2(OC1)O[C@H]1C[C@H]3[C@@H]4CC=C5C[C@@H](O[C@@H]6O[C@H](CO)[C@@H](O)[C@H](O)[C@H]6NC(=O)C(F)(F)F)CC[C@]5(C)[C@H]4CC[C@]3(C)[C@H]1[C@@H]2C`, for which the MIC (against Candida albicans; against Pseudomonas aeruginosa; in the data set on Escherichia coli; in the data set with Bacillus subtilis; against Klebsiella pneumoniae; in data set [1]) was more than 128 µg/mL each time. Moreover, the MIC against Proteus mirabilis, in the data set with Staphylococcus aureus and against Enterococcus faecalis was more than 128 µg/mL in each case.
As for `C[C@@H]1CC[C@@]2(OC1)O[C@H]1C[C@H]3[C@@H]4CC=C5C[C@@H](O[C@@H]6O[C@H](CO)[C@@H](O)[C@H](O)[C@H]6NC(=O)[C@H](C)N)CC[C@]5(C)[C@H]4CC[C@]3(C)[C@H]1[C@@H]2C`, the MIC against Candida albicans was 4 µg/mL (≈ 6.18 µM); with Pseudomonas aeruginosa it was more than 128 µg/mL; in the data set with Escherichia coli, more than 128 µg/mL; in the data set with Bacillus subtilis, 8 µg/mL (≈ 12.4 µM); in the data set on Klebsiella pneumoniae it was more than 128 µg/mL; in data set [1], 4 µg/mL (≈ 6.18 µM). Also, the MIC was 2 µg/mL (≈ 3.09 µM) with Yarrowia lipolytica, more than 128 µg/mL against Proteus mirabilis, 4 µg/mL (≈ 6.18 µM) with Staphylococcus aureus and 4 µg/mL (≈ 6.18 µM) with Enterococcus faecalis. Besides, the hemolysis at 1 h in data set [2] is less than 10%.
`C[C@@H]1CC[C@@]2(OC1)O[C@H]1C[C@H]3[C@@H]4CC=C5C[C@@H](O[C@@H]6O[C@H](CO)[C@@H](O)[C@H](O)[C@H]6NC(=O)[C@@H](C)N)CC[C@]5(C)[C@H]4CC[C@]3(C)[C@H]1[C@@H]2C`: the MIC in the data set with Candida albicans is 4 µg/mL (≈ 6.18 µM); in the data set on Pseudomonas aeruginosa, more than 128 µg/mL; in the data set with Escherichia coli, more than 128 µg/mL; against Bacillus subtilis, 2 µg/mL (≈ 3.09 µM); in the data set with Klebsiella pneumoniae it was more than 128 µg/mL; in data set [1] it was 2 µg/mL (≈ 3.09 µM). The MIC in the data set on Yarrowia lipolytica was 8 µg/mL (≈ 12.4 µM); against Proteus mirabilis it was more than 128 µg/mL; against Staphylococcus aureus it was 2 µg/mL (≈ 3.09 µM); in the data set with Enterococcus faecalis, 2 µg/mL (≈ 3.09 µM). The hemolysis at 1 h in data set [2] was less than 10%.
In the case of `C[C@@H]1CC[C@@]2(OC1)O[C@H]1C[C@H]3[C@@H]4CC=C5C[C@@H](O[C@@H]6O[C@H](CO)[C@@H](O)[C@H](O)[C@H]6NC(=O)[C@@H](N)CCCCN)CC[C@]5(C)[C@H]4CC[C@]3(C)[C@H]1[C@@H]2C`, the MIC was 4 µg/mL (≈ 5.68 µM) against Candida albicans; more than 128 µg/mL against Pseudomonas aeruginosa; more than 128 µg/mL in the data set on Escherichia coli; 32 µg/mL (≈ 45.5 µM) in the data set on Bacillus subtilis; more than 128 µg/mL against Klebsiella pneumoniae; 16 µg/mL (≈ 22.7 µM) in [1]. Moreover, the MIC was 4 µg/mL (≈ 5.68 µM) in the data set on Yarrowia lipolytica, more than 128 µg/mL against Proteus mirabilis, 16 µg/mL (≈ 22.7 µM) in the data set with Staphylococcus aureus and 16 µg/mL (≈ 22.7 µM) in the data set with Enterococcus faecalis. For the same molecule, in [3], the hemolysis at 1 h, 128 mg/L is 92%.
`C[C@@H]1CC[C@@]2(OC1)O[C@H]1C[C@H]3[C@@H]4CC=C5C[C@@H](O[C@@H]6O[C@H](CO)[C@@H](O)[C@H](O)[C@H]6NC(=O)[C@@H](N)[C@@H](C)O)CC[C@]5(C)[C@H]4CC[C@]3(C)[C@H]1[C@@H]2C`: the MIC with Candida albicans is 4 µg/mL (≈ 5.91 µM); against Pseudomonas aeruginosa it was more than 128 µg/mL; with Escherichia coli, more than 128 µg/mL; in the data set on Bacillus subtilis it was 32 µg/mL (≈ 47.3 µM); in the data set with Klebsiella pneumoniae it was more than 128 µg/mL; in [1], 16 µg/mL (≈ 23.6 µM). For the same molecule, the MIC in the data set with Yarrowia lipolytica is 4 µg/mL (≈ 5.91 µM); against Proteus mirabilis, more than 128 µg/mL; against Staphylococcus aureus, 16 µg/mL (≈ 23.6 µM); with Enterococcus faecalis it was 16 µg/mL (≈ 23.6 µM). The hemolysis at 1 h, 128 mg/L in [3] is 56%.
As to `C[C@@H]1CC[C@@]2(OC1)O[C@H]1C[C@H]3[C@@H]4CC=C5C[C@@H](O[C@@H]6O[C@H](CO)[C@@H](O)[C@H](O)[C@H]6NC(=O)[C@H](C)O)CC[C@]5(C)[C@H]4CC[C@]3(C)[C@H]1[C@@H]2C`, the MIC (against Candida albicans; against Pseudomonas aeruginosa; against Escherichia coli; in the data set with Bacillus subtilis; in the data set on Klebsiella pneumoniae; in [1]) was more than 128 µg/mL each time. Besides, the minimal inhibitory concentration (MIC) in the data set with Yarrowia lipolytica, with Proteus mirabilis, in the data set on Staphylococcus aureus and with Enterococcus faecalis was more than 128 µg/mL throughout. For the same molecule, in data set [2], the hemolysis at 1 h was less than 10%.
